Data taken from patent publication US12648952B2, “Methods of treatment using ICAM-modulating agents” (AVM Biotechnology, LLC, priority 2020, dated 2026).
Values belong to the compound of their own block, whether it stands above or below them.

Columns and labels:
whole blood [1] = experiment: Ex vivo whole blood incubation, immune cell numbers (Study 6); format: cell-based, mouse or human
Description: The profound in vivo activity that is observed in naïve mice and in cancer models must therefore be mediated through the mobilized supercharged Natural Killer T cells, T cells and dendritic cells after AVM0703 HED 6 mg/kg and higher.

splenocytes = experiment: Ex vivo splenocyte viability by flow cytometry (Study 24); format: cell-based, mouse
Description: Splenocytes were cultured for 16 hours prior to assay execution.

[2] = tested on: lymphocytes, monocytes, NKT cells, T cells, dendritic cells; experiment: In vivo immune cell mobilisation and ablation after high dose glucocorticoid; design: species or system mice; settings: HED 15 mg/kg and higher
Source text: High doses of glucocorticoid exert powerful biological effects that will contribute to the treatment of lymphocyte-mediated diseases and cancers, as well as microbial diseases. […] This cell type is discussed in greater detail below.
CD4CD8 double positivity on CD3 T lymphocytes indicates a cytotoxic T cell. […] In vivo only lymphocytes, monocytes, some neutrophils and cancer cells have been ablated.
AVM_NKT cells are NKp46+ and Ly6G positive, indicating the potential to directly kill targets as well as to engulf them. The typical AVM_NKT summarized above are not CD1d restricted. […] In vivo, glucocorticoids ablate lymphocytes other than NK and NKT cells, and monocytes, within 6 hours after oral dosing of naïve mice. In tumor models the novel NKT and T cell are not observed in the blood. However, within 48 hours of dosing NKp46+ cells and Ly6G+ cells, which are not macrophages as they are negative for F4/80, can be found in formations within the tumors, surrounding regions of remaining viable tumor. This indicates the functional potency of these cells. In the tumor setting, the AVM novel immune cells are not observed in the blood. They appear to preferentially home to the abnormal cells, in this case cancer cells, and circulating normal monocytes and neutrophils are not depleted as they are in the naïve setting.

whole blood [3] = experiment: Ex vivo glucocorticoid comparison, whole blood CBC analysis; format: cell-based; settings: overnight, room temperature
[4] = cited from earlier work
[5] = ex vivo or in vitro concentrations equal to peak blood concentrations of HED 7-15 mg/kg or greater

SMILES: C[C@@H]1C[C@H]2[C@@H]3CCC4=CC(=O)C=C[C@]4(C)[C@@]3(F)[C@@H](O)C[C@]2(C)[C@@]1(O)C(=O)CO [dexamethasone base]
response of ex vivo whole blood (whole blood [1]; 100 uM up to 500 uM): no response | numbers of lymphocytes, monocytes, eosinophils, basophils in whole blood (whole blood [1]; 500 μM dexamethasone base or 50 RU486, 16 hr, room temperature): no change in numbers | lymphocyte-killing activity in whole blood (whole blood [1]; 500 μM dexamethasone base or 50 RU486 alone): does not induce the lymphocyte-killing activity seen in in vivo experiments | response of isolated splenocytes (splenocytes; 100 uM up to 500 uM): no response | concentrations that do not trigger splenocyte cell death (splenocytes; after 4 hours): above 100 μM | concentrations with direct killing activity on splenocytes (splenocytes; after 4 hours): lower than 100

in vivo effects on colon, pancreas or bone [2]: no effects on colon, pancreas or bone
SMILES: C[C@@H]1C[C@H]2[C@@H]3CCC4=CC(=O)C=C[C@]4(C)[C@@]3(F)[C@@H](O)C[C@]2(C)[C@@]1(O)C(=O)COP(=O)(O)O [dexamethasone phosphate]
direct apoptotic effect on whole blood (whole blood [1]; [5]): no direct apoptotic effect | direct apoptotic effect on splenocytes (splenocytes; [5]): no direct apoptotic effect | induction of CD3-very-high T cells and CD11b-very-high dendritic cells [2]: CD11b-very-high dendritic cells are also induced | differences between dexamethasone formulations in ex vivo CBC analysis (whole blood [3]): no noticeable differences

SMILES: C[C@]12C=CC(=O)C=C1CC[C@@H]1[C@@H]2C(=O)C[C@@]2(C)[C@H]1CC[C@]2(O)C(=O)CO [prednisone]
biologic half-life [4]: about 20 hours
